One may read the EC50 as the concentration at which the effect is half-maximal. The CC50 is the concentration at which the toxic effect on the cells reaches its halfway point. Broadly, the LD50 is the dose at which mortality reaches 50%.

The structures appear in SMILES notation. Converted amounts (≈) assume the structure as drawn.

The results in this text go back to patent US9132126B2, “Phenyl-isoxazole derivatives and preparation process thereof” (priority 2011, dated 2015).

Series [1] has as its system novel influenza virus (K09). Nature of the series: microbe, parasite or virus in culture. The series is classed as cell-based. The conditions noted are these: for EC50: MDCK, 72 h, read-out: Plaque reduction (Experimental Example 2) EC50; for SI value K09: CC50/EC50.
Series [2] in a line: Cytotoxicity assay using MTT. Format: cell-based. The conditions noted are these: dog, MDCK cells infected with influenza virus (K09), MDCK cell infected with K09; compound 24 hours; read-out: MTT assay (Experimental Example 3) CC50. As for the experimental part:
In this experiment, a cell was infected with a virus, and then the virus was directly treated with a compound so as to determine if the virus-infected cell has toxicity. For this, a cell (MDCK) was infected with an influenza virus (K09) for 1 hour, and treated with the compound with different concentrations for 24 hours. Then, the cell was treated with a MTT reagent for 1 hour. After 1 hour, a formazan crystal produced by the MTT reagent was dissolved in DMSO, and the absorbance was measured by an ELISA reader so as to determine CC50.
measured by MTT assay. A maximum concentration of the compound, at which the number of cells is reduced to half or more compared to that of a control group

Series [3] has as its system influenza virus (K09) expressing GFP. Format: cell-based. Further details: key: ◯ = effective; X = ineffective.
Series [4] is described as follows: Acute toxicity test through oral administration in a rat. The series is classed as in vivo. The note with it: Sprague-Dawley (SD), in vivo; male SD-Rat, single oral administration, 14 days observation. As for the experimental part: The acute toxicity of the inventive compound was determined through oral administration in a rat. Since the compound is expected to be orally administered in a clinical situation, an oral administration route was selected. A male rat aged 6 weeks (SD-Rat, 220±30 g) was subjected to quarantine, and acclimated for 1 week under a condition of lighting of 12 hours (08:00˜20:00), and luminance of 150-300 Lux at 22±3° C. at a relative humidity of 50±20%, while being freely fed with feed and water. Each of a control group and an experimental group include 8 rats. The control group was orally administered with 0.5% HPMC, and the experimental group was orally administered with a material (different concentrations) suspended in 0.5% HPMC, by using a sonde in an amount in proportion to the measured weight of each individual.
The concentration of the drug administered to the experimental group was set as 2000 mg/kg (the highest concentration for a single dose administration in a non-clinical test), and 1000 mg/kg, and 500 mg/kg (with a common ratio). For 14 days from drug administration, clinical symptoms were observed while the weight change was measured. Test animals that died during the test were subjected to autopsy, and abnormalities of main organs (heart, liver, lung, spleen, kidney, and large intestine) were observed and recorded. On the last day of the test (on the 14th day from the administration), all individuals were subjected to autopsy, and the changes of the organs caused by a test material were observed and compared to those in the control group. In the control group, no rats had died, and abnormalities were not observed through autopsy.
Each group was orally administered in a concentration of 500 mg/kg, 1000 mg/kg, and 2000 mg/kg. For 14 days from the administration, according to the test method, clinical symptoms were observed. […] Also, in the groups administered in various amounts, no individuals died. […] Further, no abnormal responses were observed, and from the autopsy results, no peculiarities were observed.

For `Cc1onc(-c2cccc(C(F)(F)F)c2)c1C(=O)N1CCN(c2ccc(Cl)c(Cl)c2)CC1` [Example 43, (4-(3,4-dichlorophenyl)piperazine-1-yl)(5-methyl-3-(3-(trifluoromethyl)phenyl)isoxazol-4-yl)methanone], in series [1], the EC50 is more than 50 µg/mL. Also, the CC50 at 24 h in series [2] worked out at 2500 µg/mL (≈ 5160 µM). The “GFP reduction (Experimental Example 1) effect” value (“GFP reduction” below) in series [3] is on record as “X”.

With `COc1cccc(N2CCN(C(=O)c3c(-c4cccc(F)c4)noc3N)CC2)c1` [Example 68, (5-amino-3-(3-fluorophenyl)isoxazol-4-yl)(4-(3-methoxyphenyl)piperazine-1-yl)methanone], in series [1], the “SI value K09” value fell in the range of 3.03 to 7.81 and the EC50 is 17.5 to 29 µg/mL (≈ 44.1 to 73.2 µM). Besides, the CC50 at 24 h in series [2] is 88.1 to 137 µg/mL (≈ 222 to 345 µM). In series [3], the “GFP reduction” value is “◯”.

For `Cc1onc(-c2cccc(OC(F)(F)F)c2)c1C(=O)N1CCN(c2ccc(Cl)c(Cl)c2)CC1` [Example 51, (4-(3,4-dichlorophenyl)piperazine-1-yl)(5-methyl-3-(3-(trifluoromethoxy)phenyl)isoxazol-4-yl)methanone], in series [1], the “SI value K09” value is 3.91 to 10.80 and the EC50 was in the range of 2.4 to 3.9 µg/mL (≈ 4.8 to 7.8 µM). The CC50 at 24 h in series [2] was in the range of 15.2 to 25.9 µg/mL (≈ 30.5 to 51.8 µM). Also, in series [3], the “GFP reduction” value is on record as “◯”.

As for `Nc1onc(-c2ccccc2C(F)(F)F)c1C(=O)N1CCN(c2ccc(Cl)c(Cl)c2)CC1` [Example 91, (5-amino-3-(2-(trifluoromethyl)phenyl)isoxazol-4-yl)(4-(3,4-dichlorophenyl)piperazine-1-yl)methanone], in series [1], the “SI value K09” value lay within 0.71 to 2.39 and the EC50 lay within 12.4 to 25.8 µg/mL (≈ 25.7 to 53.2 µM). The CC50 at 24 h in series [2] was 18.4 to 29.9 µg/mL (≈ 37.8 to 61.6 µM). Besides, in series [3], the “GFP reduction” value is “◯”.

For `COc1cccc(N2CCN(C(=O)c3c(-c4cccc(OC(F)(F)F)c4)noc3N)CC2)c1` [Example 116, (5-amino-3-(3-(trifluoromethoxy)phenyl)isoxazol-4-yl)(4-(3-methoxyphenyl)piperazine-1-yl)methanone], in series [1], the “SI value K09” value was 0.42 to 1.70 and the EC50 lay in the range of 15 to 32 µg/mL (≈ 32.4 to 69.2 µM). The CC50 at 24 h in series [2] is 13.7 to 25.6 µg/mL (≈ 29.5 to 55.4 µM). Further, the “GFP reduction” value in series [3] is recorded as “◯”.

Consider `Nc1onc(-c2cccc(F)c2)c1C(=O)N1CCN(c2ccccc2O)CC1` [Example 72, (5-amino-3-(3-fluorophenyl)isoxazol-4-yl)(4-(2-hydroxyphenyl)piperazine-1-yl)methanone], for which, in series [1], the “SI value K09” value lay in the range of 0.31 to 1.25 and the EC50 was 25 to 50 µg/mL (≈ 65.4 to 131 µM). Also, in series [2], the CC50 at 24 h was 15.6 to 31.2 µg/mL (≈ 40.8 to 81.7 µM). In addition, in series [3], the “GFP reduction” value is listed as “◯”.

For `Nc1onc(-c2cccc(F)c2)c1C(=O)N1CCN(c2ccc(Cl)c(Cl)c2)CC1` [Example 67, (5-amino-3-(3-fluorophenyl)isoxazol-4-yl)(4-(3,4-dichlorophenyl)piperazine-1-yl)methanone], in series [1], the “SI value K09” value lay within 2.59 to 8.85 and the EC50 is 2.4 to 3.9 µg/mL (≈ 5.51 to 8.96 µM). For the same compound, the CC50 at 24 h in series [2] lay within 10.1 to 21.2 µg/mL (≈ 23.2 to 48.8 µM). Moreover, the “GFP reduction” value in series [3] is on record as “◯”.

As to `Nc1onc(-c2cccc(OC(F)(F)F)c2)c1C(=O)N1CCN(c2ccc(Cl)c(Cl)c2)CC1` [Example 115, (5-amino-3-(3-(trifluoromethoxy)phenyl)isoxazol-4-yl)(4-(3,4-dichlorophenyl)piperazine-1-yl)methanone], in series [1], the “SI value K09” value is 0.34 to 1.70 and the EC50 lay in the range of 21 to 45 µg/mL (≈ 41.9 to 89.8 µM). The CC50 at 24 h in series [2] lay within 15.5 to 35.8 µg/mL (≈ 30.9 to 71.3 µM). Moreover, in series [3], the “GFP reduction” value was “◯”.

With `COc1cccc(N2CCN(C(=O)c3c(-c4ccc(OC(F)(F)F)cc4)noc3N)CC2)c1` [Example 100, (5-amino-3-(4-(trifluoromethoxy)phenyl)isoxazol-4-yl)(4-(3-methoxyphenyl)piperazine-1-yl)methanone], in series [1], the “SI value K09” value was 0.49 to 12.57 and the EC50 is 29 to 37 µg/mL (≈ 62.7 to 80 µM). Also, the CC50 at 24 h in series [2] was in the range of 18.4 to 46.5 µg/mL (≈ 39.9 to 101 µM). The “GFP reduction” value in series [3] is recorded as “◯”.

In the case of `Nc1onc(-c2ccccc2F)c1C(=O)N1CCN(c2ccc(Cl)c(Cl)c2)CC1` [Example 75, (5-amino-3-(2-fluorophenyl)isoxazol-4-yl)(4-(3,4-dichlorophenyl)piperazine-1-yl)methanone], in series [1], the “SI value K09” value lay in the range of 12.5 to 25.0 and the EC50 was more than 50 µg/mL. The CC50 at 24 h in series [2] lay in the range of 625 to 1250 µg/mL (≈ 1440 to 2870 µM). Further, the “GFP reduction” value in series [3] is listed as “◯”.

Regarding `COc1ccccc1N1CCN(C(=O)c2c(-c3cccc(C(F)(F)F)c3)noc2N)CC1` [Example 109, (5-amino-3-(3-(trifluoromethyl)phenyl)isoxazol-4-yl)(4-(2-methoxyphenyl)piperazine-1-yl)methanone], in series [1], the “SI value K09” value is 42.07 to 125.4 and the EC50 was 1.52 to 3.5 µg/mL (≈ 3.4 to 7.84 µM). Moreover, the CC50 at 24 h in series [2] is 147 to 191 µg/mL (≈ 330 to 427 µM). Also, the “GFP reduction” value in series [3] was “◯”. For the same compound, the LD50 at 14 days in series [4] was more than 2000 mg/kg.

As to `Cc1onc(-c2ccc(OC(F)(F)F)cc2)c1C(=O)N1CCN(c2ccc(Cl)c(Cl)c2)CC1` [Example 27, (4-(3,4-dichlorophenyl)piperazine-1-yl)(5-methyl-3-(4-(trifluoromethoxy)phenyl)isoxazol-4-yl)methanone], in series [1], the “SI value K09” value was 2.5 to 8.13 and the EC50 fell in the range of 2.4 to 3.9 µg/mL (≈ 4.8 to 7.8 µM). For the same compound, the CC50 at 24 h in series [2] fell in the range of 9.77 to 19.5 µg/mL (≈ 19.5 to 39 µM). In addition, the “GFP reduction” value in series [3] is “◯”. Besides, the LD50 at 14 days in series [4] is more than 2000 mg/kg.

Take `COc1ccccc1N1CCN(C(=O)c2c(-c3cccc(OC(F)(F)F)c3)noc2C)CC1` [Example 53, (4-(2-methoxyphenyl)piperazine-1-yl)(5-methyl-3-(3-(trifluoromethoxy)phenyl)isoxazol-4-yl)methanone]: in series [1], the “SI value K09” value is on record as 160< and the EC50 amounted to 3.12 µg/mL (≈ 6.76 µM). Moreover, the CC50 at 24 h in series [2] was more than 500 µg/mL. The “GFP reduction” value in series [3] is “◯”.

With `Nc1onc(-c2cccc(C(F)(F)F)c2)c1C(=O)N1CCN(c2ccccc2O)CC1` [Example 112, (5-amino-3-(3-(trifluoromethyl)phenyl)isoxazol-4-yl)(4-(2-hydroxyphenyl)piperazine-1-yl)methanone], in series [1], the “SI value K09” value was in the range of 0.33 to 1.37 and the EC50 lay within 25 to 50 µg/mL (≈ 57.8 to 116 µM). Moreover, the CC50 at 24 h in series [2] lay within 16.5 to 34.3 µg/mL (≈ 38.2 to 79.3 µM). For the same compound, in series [3], the “GFP reduction” value was “◯”.

With `CCOC(=O)C1CCN(C(=O)c2c(-c3ccccc3Cl)noc2N)CC1` [Example 122, ethyl-1-(5-amino-3-(2-chlorophenyl)isoxazol-4-carbonyl)piperidine-4-carboxylate], in series [1], the “SI value K09” value is listed as 18.89 to 71.27 and the EC50 is 4.5 to 8.5 µg/mL (≈ 11.9 to 22.5 µM). In addition, the CC50 at 24 h in series [2] was in the range of 161 to 321 µg/mL (≈ 425 to 849 µM). Moreover, the “GFP reduction” value in series [3] is reported as “◯”. In series [4], this compound yielded an LD50 at 14 days of more than 2000 mg/kg.

Take `COc1ccccc1N1CCN(C(=O)c2c(-c3ccccc3Cl)noc2N)CC1` [Example 61, (5-amino-3-(2-chlorophenyl)isoxazol-4-yl)(4-(2-methoxyphenyl)piperazine-1-yl)methanone]: in series [1], the “SI value K09” value lay in the range of 159.94 to 319.89 and the EC50 turned out to be 0.39 µg/mL (≈ 0.945 µM). The CC50 at 24 h in series [2] lay within 62.5 to 125 µg/mL (≈ 151 to 303 µM). In series [3], the “GFP reduction” value is “◯”. Besides, the LD50 at 14 days in series [4] is more than 2000 mg/kg.

Consider `Nc1onc(-c2cccc(C(F)(F)F)c2)c1C(=O)N1CCN(c2ccc(Cl)c(Cl)c2)CC1` [Example 107, (5-amino-3-(3-(trifluoromethyl)phenyl)isoxazol-4-yl)(4-(3,4-dichlorophenyl)piperazine-1-yl)methanone], for which, in series [1], the “SI value K09” value lay in the range of 31.34 to 62.68 and the EC50 is 2.72 to 3.9 µg/mL (≈ 5.6 to 8.04 µM). Moreover, the CC50 at 24 h in series [2] is 122 to 170 µg/mL (≈ 252 to 351 µM). Also, the “GFP reduction” value in series [3] is on record as “◯”. Besides, in series [4], the LD50 at 14 days is more than 2000 mg/kg.
